The record followed here is patent publication US8962630B2, “Pyrrolopyrimidine compounds and their uses” (Novartis AG, priority 2008, dated 2015).

A value given as a limit tells only on which side of the number the result lay.

Common to all, as to assay type: biochemical
Assay [1] concerns the target CDK1/cyclin B (Homo sapiens (Human), UniProt P06493). Briefly: CDK1/Cyclin B enzymatic activity assay (IMAP-FP). The note with it: Table 2; 20 μM ATP; read-out: CDK1. The text has this: A 384-well microtiter IMAP-FPT™ (Molecular Devices Trade Mark Technology) endpoint assay was used for CDK1/cyclin B kinase activity measurements. The same assay was used for IC50 determination of small molecule inhibitors.

Assay [2] deals with CDK4/cyclin D1 (Homo sapiens (Human), UniProt P11802). Put plainly: CDK4/Cyclin D1 enzymatic activity assay (Lance TR-FRET). The note with it: Table 2; 3 μM ATP; read-out: CDK4. Here is the method:
A 384-well microtiter Lance TR-FRET (time-resolved-fluorescence energy transfer) endpoint assay was used for CDK4/cyclin D1 kinase activity measurements. The same assay was used for IC50 determination of small molecule inhibitors. In general, the kinase reactions were carried out in 30 μL volumes in the reaction solution containing the following: 2 uL compound (in […]), 18 uL CDK4/cyclin D1 in Assay Buffer (50 mM HEPES, pH 7.5, 5 mM MgCl2, 2 mM MnCl2, 1 mM DTT, 0.05% BSA, 0.02% Tween-20), 10 uL of the mixture of pRb152 and ATP. The final reaction mixture contains compound (inhibitor) with the concentration varying from 0.005-10 μM, 2% DMSO, 0.3 nM CDK4/cyclin D1, 175 nM pRb152, and 3 μM ATP (Amersham Pharmacia, Cat. No. 27-2056-01). All reactions were run at room temperature in 384-well white flat-bottom OptiPlates (Perkin Elmer, Cat. No. 6007290) for 60 min then were quenched by the addition of 10 μL of 120 mM EDTA. The signals were captured by the addition of 40 μL of the Detection Solution containing the following: Detection Buffer (50 mM HEPES, pH 7.5, 30 mM EDTA, 0.1% Triton x-100, 0.05% BSA), 70 ng/mL anti-phospho-pRb(S780) (Cell Signaling Technology, Cat. No. 9307S), 1 nM Lance Eu-W1024-Rabbit anti-IgG (Perkin Elmer, Cat. No. AD0082), and 20 nM SureLight™ Allophycocyanin-Streptavidin (Perkin Elmer, Cat. No. CR130-100). The resulted solutions were incubated at room temperature for 2 hours before read on the Evision Multilabel Reader (Perkin Elmer, Envision 2102-0010).
CDk4/cyclin D1 recombinant protein used in the enzymatic activity assay was prepared by coexpressing pDEST10-CDK4 (N-terminal His6) and pFastBacDual-GST-hCyclinDl viruses in Sf21 cells.

Assay [3] addresses CDK2/cyclin A (Homo sapiens (Human), UniProt P24941). Put plainly: CDK2/Cyclin A enzymatic activity assay (IMAP-FP). The note with it: Table 2; read-out: CDK2.

Chain of CDK1/cyclin B (P06493 whole entry, species assumed): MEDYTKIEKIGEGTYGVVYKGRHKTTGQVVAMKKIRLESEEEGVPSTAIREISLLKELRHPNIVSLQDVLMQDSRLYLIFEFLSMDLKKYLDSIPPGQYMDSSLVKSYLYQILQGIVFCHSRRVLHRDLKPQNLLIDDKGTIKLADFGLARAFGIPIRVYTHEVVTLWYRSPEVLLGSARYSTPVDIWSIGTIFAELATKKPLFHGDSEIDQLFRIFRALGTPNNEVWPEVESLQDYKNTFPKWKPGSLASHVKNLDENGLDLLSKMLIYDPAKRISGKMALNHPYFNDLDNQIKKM
Chain of CDK1/cyclin B (P14635 whole entry partner, species assumed): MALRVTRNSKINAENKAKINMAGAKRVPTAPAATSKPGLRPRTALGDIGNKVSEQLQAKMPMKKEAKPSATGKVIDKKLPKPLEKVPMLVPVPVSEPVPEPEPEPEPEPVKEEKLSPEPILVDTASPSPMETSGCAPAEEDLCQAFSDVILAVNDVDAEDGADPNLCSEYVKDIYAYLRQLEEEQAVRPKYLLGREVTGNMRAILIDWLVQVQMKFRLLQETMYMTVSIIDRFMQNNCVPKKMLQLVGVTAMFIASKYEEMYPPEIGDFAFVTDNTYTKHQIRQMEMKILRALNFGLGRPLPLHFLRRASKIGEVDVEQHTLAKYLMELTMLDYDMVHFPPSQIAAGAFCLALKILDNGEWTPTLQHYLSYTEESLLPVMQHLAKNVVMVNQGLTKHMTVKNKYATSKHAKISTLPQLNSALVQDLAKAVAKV
Chain of CDK4/cyclin D1 (P11802 whole entry): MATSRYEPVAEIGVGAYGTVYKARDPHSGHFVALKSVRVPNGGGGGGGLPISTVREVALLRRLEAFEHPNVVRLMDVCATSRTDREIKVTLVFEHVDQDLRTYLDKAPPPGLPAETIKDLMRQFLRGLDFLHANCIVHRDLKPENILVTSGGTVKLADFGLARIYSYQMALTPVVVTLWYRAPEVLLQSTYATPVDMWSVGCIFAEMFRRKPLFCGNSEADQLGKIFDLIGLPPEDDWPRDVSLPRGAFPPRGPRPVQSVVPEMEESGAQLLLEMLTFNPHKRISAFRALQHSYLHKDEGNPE
Chain of CDK4/cyclin D1 (P24385 whole entry partner): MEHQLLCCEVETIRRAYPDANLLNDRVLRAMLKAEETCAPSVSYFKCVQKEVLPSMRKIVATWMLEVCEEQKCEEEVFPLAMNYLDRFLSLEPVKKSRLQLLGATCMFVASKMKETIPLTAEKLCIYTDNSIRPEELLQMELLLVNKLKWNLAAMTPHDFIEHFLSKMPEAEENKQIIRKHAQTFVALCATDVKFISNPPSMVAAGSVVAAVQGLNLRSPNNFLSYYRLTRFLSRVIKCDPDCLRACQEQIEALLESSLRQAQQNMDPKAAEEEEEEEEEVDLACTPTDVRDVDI

Consider `C[C@@H]1CN(c2ccc(Nc3ncc4cc(C(=O)N(C)C)n(C5CCCC5)c4n3)nc2)CCN1C(=O)OC(C)(C)C` [Example 30, (R)-4-[6-(7-Cyclopentyl-6-dimethylcarbamoyl-7H-pyrrolo[2,3-d]pyrimidin-2-ylamino)-pyridin-3-yl]-2-methyl-piperazine-1-carboxylic acid tert-butyl ester], for which the IC50 is over 15000 nM in assay [1], 100 to 1000 nM in assay [2] and over 15000 nM in assay [3].

On to `C[C@H]1CN(c2ccc(Nc3ncc4cc(C(=O)N(C)C)n(C5CCCC5)c4n3)nc2)CCN1C(=O)OC(C)(C)C` [Example 31, (S)-4-[6-(7-Cyclopentyl-6-dimethylcarbamoyl-7H-pyrrolo[2,3-d]pyrimidin-2-ylamino)-pyridin-3-yl]-2-methyl-piperazine-1-carboxylic acid tert-butyl ester], for which the values for the IC50 in assay [1], in assay [2] and in assay [3] were over 15000 nM, 100 to 1000 nM and over 15000 nM, respectively.

In the case of `CN(C)C(=O)c1cc2cnc(Nc3ccc(N4CC(O)C4)cn3)nc2n1C1CCCC1` [Example 32, 7-Cyclopentyl-2-[5-(3-hydroxy-azetidin-1-yl)-pyridin-2-ylamino]-7H-pyrrolo[2,3-d]pyrimidine-6-carboxylic acid dimethylamide], the values for the IC50 in assay [1], in assay [2] and in assay [3] were over 15000 nM, 10 to 100 nM and over 15000 nM, respectively.

Consider `CN(C)C(=O)c1cc2cnc(Nc3ccc(N4CCN(CCOCCO)CC4)cn3)nc2n1C1CCCC1` [Example 33, 7-Cyclopentyl-2-(5-{4-[2-(2-hydroxy-ethoxy)-ethyl]-piperazin-1-yl}-pyridin-2-ylamino)-7H-pyrrolo[2,3-d]pyrimidine-6-carboxylic acid dimethylamide], for which the IC50 was over 15000 nM in assay [1], 10 to 100 nM in assay [2] and over 15000 nM in assay [3].

As for `CN(C)C(=O)c1cc2cnc(Nc3ccc(CN4CCN(S(C)(=O)=O)CC4)cn3)nc2n1C1CCCC1` [Example 34, 7-Cyclopentyl-2-[5-(4-methanesulfonyl-piperazin-1-ylmethyl)-pyridin-2-ylamino]-7H-pyrrolo[2,3-d]pyrimidine-6-carboxylic acid dimethylamide], the IC50 in assay [1] was over 15000 nM; in assay [2] it was 100 to 1000 nM; in assay [3], over 15000 nM.

For the compound `CN(C)C(=O)c1cc2cnc(Nc3ccc(N4CCC(CCO)CC4)cn3)nc2n1C1CCCC1` [Example 35, 7-Cyclopentyl-2-[4-(2-hydroxy-ethyl)-3,4,5,6-tetrahydro-2H-[1,3′]bipyridinyl-6′-ylamino]-7H-pyrrolo[2,3-d]pyrimidine-6-carboxylic acid dimethylamide], the IC50 was 4700 nM in assay [1], 10 to 100 nM in assay [2] and 2900 nM in assay [3].

Regarding `CC(CO)N1CCN(c2ccc(Nc3ncc4cc(C(=O)N(C)C)n(C5CCCC5)c4n3)nc2)CC1` (stereo not drawn) [Example 36, 7-Cyclopentyl-2-{5-[4-(2-hydroxy-1-methyl-ethyl)-piperazin-1-yl]-pyridin-2-ylamino}-7H-pyrrolo[2,3-d]pyrimidine-6-carboxylic acid dimethylamide], the IC50 was over 15000 nM in assay [1], 10 to 100 nM in assay [2] and over 15000 nM in assay [3].

`CN(C)C(=O)c1cc2cnc(Nc3ccc(N4CCN(CCO)CC4)nn3)nc2n1C1CCCC1` [Example 37, 7-Cyclopentyl-2-{6-[4-(2-hydroxy-ethyl)-piperazin-1-yl]-pyridazin-3-ylamino}-7H-pyrrolo[2,3-d]pyrimidine-6-carboxylic acid dimethylamide]: the IC50 in assay [1] is over 15000 nM; in assay [2], 10 to 100 nM; in assay [3], over 15000 nM.

As for `CN(C)C(=O)c1cc2cnc(Nc3ccc(N4CCN(C(=O)N5CCOCC5)CC4)cn3)nc2n1C1CCCC1` [Example 38, 7-Cyclopentyl-2-{5-[4-(morpholine-4-carbonyl)-piperazin-1-yl]-pyridin-2-ylamino}-7H-pyrrolo[2,3-d]pyrimidine-6-carboxylic acid dimethylamide], the IC50 was over 15000 nM in assay [1], 10 to 100 nM in assay [2] and over 15000 nM in assay [3].

For the compound `CN(C)C(=O)c1cc2cnc(Nc3ccc(N4CC[C@H](O)C4)cn3)nc2n1C1CCCC1` [Example 39, 7-Cyclopentyl-2-[5-((S)-3-hydroxy-pyrrolidin-1-yl)-pyridin-2-ylamino]-7H-pyrrolo[2,3-d]pyrimidine-6-carboxylic acid dimethylamide], the figures for the IC50 in assay [1], in assay [2] and in assay [3] were over 15000 nM, 10 to 100 nM and over 15000 nM, respectively.

In the case of `CN(C)C(=O)c1cc2cnc(Nc3ccccn3)nc2n1C1CCC(C)(O)CC1` (stereo not drawn) [Example 40, 7-(4-Hydroxy-4-methyl-cyclohexyl)-2-(pyridin-2-ylamino)-7H-pyrrolo[2,3-d]pyrimidine-6-carboxylic acid dimethylamide], the IC50 is over 15000 nM in assay [1], 100 to 1000 nM in assay [2] and over 15000 nM in assay [3].

For the compound `CN(C)C(=O)c1cc2cnc(Nc3ccc(C(=O)N(C)CCN)cn3)nc2n1C1CCCC1` [Example 41, 2-{5-[(2-Amino-ethyl)-methyl-carbamoyl]-pyridin-2-ylamino}-7-cyclopentyl-7H-pyrrolo[2,3-d]pyrimidine-6-carboxylic acid dimethylamide], the IC50 in assay [1] was 14800 nM; in assay [2] it was 1 to 10 nM; in assay [3], 4700 nM.

In the case of `CN(C)C(=O)c1cc2cnc(Nc3ccc(CN4CCNCC4)cn3)nc2n1C1CCCC1` [Example 42, 7-Cyclopentyl-2-(5-piperazin-1-ylmethyl-pyridin-2-ylamino)-7H-pyrrolo[2,3-d]pyri-midine-6-carboxylic acid dimethylamide], the results for the IC50 in assay [1], in assay [2] and in assay [3] were over 15000 nM, 10 to 100 nM and over 15000 nM, respectively.

Consider `CN1CCN(Cc2ccc(Nc3ncc4cc(C(=O)N(C)C)n(C5CCCC5)c4n3)nc2)CC1` [Example 43, 7-Cyclopentyl-2-[5-(4-methyl-piperazin-1-ylmethyl)-pyridin-2-ylamino]-7H-pyrrolo[2,3-d]pyrimidine-6-carboxylic acid dimethylamide], for which the figures for the IC50 in assay [1], in assay [2] and in assay [3] were over 15000 nM, 10 to 100 nM and over 15000 nM, respectively.

For `CN(C)C(=O)c1cc2cnc(Nc3ccc(N4CCN(C(=O)OC(C)(C)C)CC4)nn3)nc2n1C1CCCC1` [Example 45, 4-[6-(7-Cyclopentyl-6-dimethylcarbamoyl-7H-pyrrolo[2,3-d]pyrimidin-2-ylamino)-pyridazin-3-yl]-piperazine-1-carboxylic acid tert-butyl ester], the IC50 in assay [1] was over 15000 nM; in assay [2], 100 to 1000 nM; in assay [3] it was 20000 nM.

For `CN(C)C(=O)c1cc2cnc(Nc3ccc(N4CCN(C[C@@H](O)CO)CC4)cn3)nc2n1C1CCCC1` [Example 46, 7-Cyclopentyl-2-{5-[4-((R)-2,3-dihydroxy-propyl)-piperazin-1-yl]-pyridin-2-ylamino}-7H-pyrrolo[2,3-d]pyrimidine-6-carboxylic acid dimethylamide], the figures for the IC50 in assay [1], in assay [2] and in assay [3] were over 15000 nM, 10 to 100 nM and over 15000 nM, respectively.

Consider `CN(C)C1CCN(c2ccc(Nc3ncc4cc(C#N)n(C5CCCC5)c4n3)nc2)CC1` [Example 47, 7-Cyclopentyl-2-((4-dimethylaminopiperidin)-1-yl-pyridin-2-ylamino)-7H-pyrrolo[2,3-d]pyrimidine-6-carbonitrile], for which the IC50 is 2600 nM in assay [1], 1 to 10 nM in assay [2] and 8300 nM in assay [3].

`CN(C)C(=O)c1cc2cnc(Nc3cnc(N4CCNCC4)cn3)nc2n1C1CCCC1` [Example 48, 7-Cyclopentyl-2-(3,4,5,6-tetrahydro-2-[1,2′]bipyrazinyl-5′-ylamino)-7H-pyrrolo[2,3-d]pyrimidine-6-carboxylic acid dimethylamide]: the IC50 in assay [1] was over 15000 nM; in assay [2], 100 to 1000 nM; in assay [3], over 15000 nM.

For the compound `CN(C)C(=O)c1cc2cnc(Nc3ccc(C(=O)N4CCNCC4)cn3)nc2n1C1CCCC1` [Example 49, 7-Cyclopentyl-2-[5-(piperazine-1-carbonyl)-pyridin-2-ylamino]-7H-pyrrolo[2,3-d]pyrimidine-6-carboxylic acid dimethylamide], the IC50 is over 15000 nM in assay [1], 10 to 100 nM in assay [2] and over 15000 nM in assay [3].
